Tested on: rat small-intestinal brush border membrane vesicles
Assay: Inhibitory effect on 33PO4 uptake into rat small-intestinal brush border membrane vesicles (rapid filtration method)
Assay type: biochemical
Details: 33PO4 uptake into rat small-intestinal BBMVs; test compound 1 µM; reacted for 60 seconds
How it was run: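 Uptake of ^33PO4 was measured by rapid filtration and liquid scintillation counting of filter-retained vesicles, after quenching with ice-cold 110 mM NaCl/1 mM KH2PO4/10 mM HEPES pH 7.5. Vesicles were brush border membranes from the upper small intestine of female Wistar rats aged 4–5 weeks.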

Structure (SMILES)	Rate of uptake inhibition (%) (1 µM)
CN1N(Cc2ccc(OCCNC(CC(=O)O)CC(=O)O)c(F)c2F)C(=O)C(C(=O)Nc2ccc(C(F)(F)F)cc2-c2cc(C(F)(F)F)ncn2)=C(O)C12CCCC2 [Example 382, 3-[2-[2.3-Difluoro-4-[[10-hydroxy-6-methyl-8-oxo-9-[[4-(trifluoromethyl)-2-[6-(trifluoromethyl)pyrimidin-4-yl]phenyl]carbamoyl]-6,7-diazaspiro[4.5]dee-9-en-7-yl)methyl]phenoxy]ethylamino]pentanedioate]	21%
CN1N(Cc2ccc(OCCCOC[C@H](O)CO)c(F)c2F)C(=O)C(C(=O)Nc2ccc(C(F)(F)F)cc2-c2ccc(C(F)(F)F)nc2)=C(O)C12CCC2 [Example 383]	26%
CN1N(Cc2ccc(OCCCCOC[C@H](O)CO)c(F)c2F)C(=O)C(C(=O)Nc2ccc(C(F)(F)F)cc2-c2ccc(C(F)(F)F)nc2)=C(O)C12CCC2 [Example 384]	39%
CN1N(Cc2ccc(OCCCCCOC[C@H](O)CO)c(F)c2F)C(=O)C(C(=O)Nc2ccc(C(F)(F)F)cc2-c2ccc(C(F)(F)F)nc2)=C(O)C12CCC2 [Example 385]	39%
CN1N(Cc2ccc(OCCCOC[C@H](O)CO)c(F)c2F)C(=O)C(C(=O)Nc2ccc(C(F)(F)F)cc2-c2ccc(C(F)(F)F)nc2)=C(O)C12CCCC2 [Example 386]	36%
CN1N(Cc2ccc(OCCCCOC[C@H](O)CO)c(F)c2F)C(=O)C(C(=O)Nc2ccc(C(F)(F)F)cc2-c2ccc(C(F)(F)F)nc2)=C(O)C12CCCC2 [Example 387]	23%
CN1N(Cc2ccc(OCCCCCOC[C@H](O)CO)c(F)c2F)C(=O)C(C(=O)Nc2ccc(C(F)(F)F)cc2-c2ccc(C(F)(F)F)nc2)=C(O)C12CCCC2 [Example 388]	15%
CN1N(Cc2ccc(OCCCOC[C@H](O)CO)c(F)c2F)C(=O)C(C(=O)Nc2ccc(C(F)(F)F)cc2-c2cc(C(F)(F)F)ncn2)=C(O)C12CCC2 [Example 389]	29%
CN1N(Cc2ccc(OCCCCOC[C@H](O)CO)c(F)c2F)C(=O)C(C(=O)Nc2ccc(C(F)(F)F)cc2-c2cc(C(F)(F)F)ncn2)=C(O)C12CCC2 [Example 390]	58%
CN1N(Cc2ccc(OCCCCCOC[C@H](O)CO)c(F)c2F)C(=O)C(C(=O)Nc2ccc(C(F)(F)F)cc2-c2cc(C(F)(F)F)ncn2)=C(O)C12CCC2 [Example 391]	42%
CN1N(Cc2ccc(OCCCOC[C@H](O)CO)c(F)c2F)C(=O)C(C(=O)Nc2ccc(C(F)(F)F)cc2-c2cc(C(F)(F)F)ncn2)=C(O)C12CCCC2 [Example 392]	47%
CN1N(Cc2ccc(OCCCCOC[C@H](O)CO)c(F)c2F)C(=O)C(C(=O)Nc2ccc(C(F)(F)F)cc2-c2cc(C(F)(F)F)ncn2)=C(O)C12CCCC2 [Example 393]	45%
CN1N(Cc2ccc(OCCCCCOC[C@H](O)CO)c(F)c2F)C(=O)C(C(=O)Nc2ccc(C(F)(F)F)cc2-c2cc(C(F)(F)F)ncn2)=C(O)C12CCCC2 [Example 394]	45%
CN1N(Cc2ccc(OCCCOCCO)c(F)c2F)C(=O)C(C(=O)Nc2ccc(C(F)(F)F)cc2-c2cc(C(F)(F)F)ncn2)=C(O)C12CCCC2 [Example 395]	39%
CN1N(Cc2ccc(OCCCCOCCO)c(F)c2F)C(=O)C(C(=O)Nc2ccc(C(F)(F)F)cc2-c2cc(C(F)(F)F)ncn2)=C(O)C12CCCC2 [Example 396]	38%
CN1N(Cc2ccc(OCCCCCOCCO)c(F)c2F)C(=O)C(C(=O)Nc2ccc(C(F)(F)F)cc2-c2cc(C(F)(F)F)ncn2)=C(O)C12CCCC2 [Example 397]	40%
CN1N(Cc2ccc(OCCCOCCCO)c(F)c2F)C(=O)C(C(=O)Nc2ccc(C(F)(F)F)cc2-c2cc(C(F)(F)F)ncn2)=C(O)C12CCCC2 [Example 398]	34%
CN1N(Cc2ccc(OCCCCOCCCO)c(F)c2F)C(=O)C(C(=O)Nc2ccc(C(F)(F)F)cc2-c2cc(C(F)(F)F)ncn2)=C(O)C12CCCC2 [Example 399]	42%

— patent publication EP3928779A1 (Chugai Seiyaku Kabushiki Kaisha, priority 2014, dated 2016)
